According to patent US8999967B2, “Tricyclic fused ring inhibitors of hepatitis C” (Presidio Pharmaceuticals, Inc., priority 2010, dated 2015):

test system: HCV 1b_Huh-Luc/Neo-ET cell line (genotype 1b replicon in Huh 7 cells); assay: HCV replicon assay (luciferase readout); format: cell-based; settings: Hepatitis C virus, HCV 1b replicon in Huh 7 cells, 72 h incubation, EC50 range class, read-out: Inhibition of HCV genotype 1b
Description: Biological activity of the compounds of the invention was determined using an HCV replicon assay. The HCV 1b_Huh-Luc/Neo-ET cell line persistently expressing a bicistronic genotype 1b replicon in Huh 7 cells was obtained from ReBLikon GMBH. This cell line was used to test compound inhibition using luciferase enzyme activity readout as a measurement of compound inhibition of replicon levels.
On Day 1 (the day after plating cells), each compound is added in triplicate to the cells. Plates are incubated for 72 h prior to determining luciferase levels. Enzyme activity was measured using a Bright-Glo Kit (cat. number E2620) manufactured by Promega Corporation. The following equation was used to generate a percent control value for each compound. % Control=(Compound Luciferase Level/Control Luciferase Level)*100
The EC50 value was determined using GraphPad Prism and the following equation: Y=Bottom asymptote+(Top asymptote-Bottom asymptote)/(1+10^((Log EC50−X)*HillSlope))
EC50 values of compounds are determined several times in the replicon assay to generate average EC50 values. […]

| Structure (SMILES) | EC50 |
| --- | --- |
| COC(=O)N[C@H](C(=O)N1CCC[C@H]1c1ncc(-c2ccc3c(c2)C(C)(C)c2ccc(-c4ccc5nc([C@@H]6CCCN6C(=O)[C@@H](NC(=O)OC)[C@@H](C)OC)[nH]c5c4)cc2O3)[nH]1)[C@@H](C)OC [Compound 146] | < 1 nM |
| [2H]C([2H])([2H])C([2H])(C([2H])([2H])[2H])[C@]([2H])(NC(=O)OC)C(=O)N1CCC[C@H]1c1ncc(-c2ccc3c(c2)C(C)(C)c2ccc(-c4ccc5nc([C@@H]6CCCN6C(=O)[C@@]([2H])(NC(=O)OC)C([2H])(C([2H])([2H])[2H])C([2H])([2H])[2H])[nH]c5c4)cc2O3)[nH]1 [Compound 147] | < 1 nM |
| C=CC[C@H](NC(=O)OC)C(=O)N1CCC[C@H]1c1ncc(-c2ccc3c(c2)C(C)(C)c2ccc(-c4ccc5nc([C@@H]6CCCN6C(=O)[C@H](CC=C)NC(=O)OC)[nH]c5c4)cc2O3)[nH]1 [Compound 148] | < 1 nM |
| COC(=O)N[C@H](C(=O)N1CCC[C@H]1c1ncc(-c2ccc3c(c2)C(C)(C)c2ccc(-c4ccc5nc([C@@H]6CCCN6C(=O)[C@@H](NC(=O)OC)C6CCOCC6)[nH]c5c4)cc2O3)[nH]1)C1CCOCC1 [Compound 149] | < 1 nM |
| C#CC[C@H](NC(=O)OC)C(=O)N1CCC[C@H]1c1ncc(-c2ccc3c(c2)C(C)(C)c2ccc(-c4ccc5nc([C@@H]6CCCN6C(=O)[C@H](CC#C)NC(=O)OC)[nH]c5c4)cc2O3)[nH]1 [Compound 150] | < 1 nM |
| COC(=O)N[C@H](C(=O)N1CCC[C@H]1c1ncc(-c2ccc3c(c2)Oc2nnc(-c4cnc([C@@H]5CCCN5C(=O)[C@@H](NC(=O)OC)C(C)C)[nH]4)cc2O3)[nH]1)C(C)C [Compound 151] | 1 to 9.9 nM |
| COC(=O)N[C@H](C(=O)N1CCC[C@H]1c1ncc(-c2ccc3nc4cc(-c5cnc([C@@H]6CCCN6C(=O)[C@@H](NC(=O)OC)C(C)C)[nH]5)ccc4nc3c2)[nH]1)C(C)C [Example 1] | < 1 nM |
| COC(=O)N[C@@H](C(=O)N1CCC[C@H]1c1ncc(-c2ccc3nc4cc(-c5cnc([C@@H]6CCCN6C(=O)[C@H](NC(=O)OC)c6ccccc6)[nH]5)ccc4nc3c2)[nH]1)c1ccccc1 [Example 2] | < 1 nM |
| COC(=O)N[C@H](C(=O)N1CCC[C@H]1c1ncc(-c2ccc3c(c2)Oc2ccc(-c4cnc([C@@H]5CCCN5C(=O)[C@@H](NC(=O)OC)C(C)C)[nH]4)cc2O3)[nH]1)C(C)C [Example 3] | < 1 nM |
| COC(=O)N[C@H](C(=O)N1CCC[C@H]1c1ncc(-c2ccc3c(c2)Cc2cc(-c4cnc([C@@H]5CCCN5C(=O)[C@@H](NC(=O)OC)C(C)C)[nH]4)ccc2O3)[nH]1)C(C)C [Example 4] | 10 to 999 nM |
| COC(=O)N[C@@H](C(=O)N1CCC[C@H]1c1ncc(-c2ccc3c(c2)Cc2cc(-c4cnc([C@@H]5CCCN5C(=O)[C@H](NC(=O)OC)c5ccccc5)[nH]4)ccc2O3)[nH]1)c1ccccc1 [Example 5] | < 1 nM |
| COC(=O)N[C@H](C(=O)N1CCC[C@H]1c1ncc(-c2ccc3c(c2)Cc2ccc(-c4cnc([C@@H]5CCCN5C(=O)[C@@H](NC(=O)OC)C(C)C)[nH]4)cc2O3)[nH]1)C(C)C [Example 6] | < 1 nM |
| COC(=O)N[C@H](C(=O)N1CCC[C@H]1c1ncc(-c2ccc3c(c2)CCc2cc(-c4cnc([C@@H]5CCCN5C(=O)[C@@H](NC(=O)OC)C(C)C)[nH]4)ccc2O3)[nH]1)C(C)C [Example 7] | < 1 nM |
| COC(=O)N[C@H](C(=O)N1CCC[C@H]1c1ncc(-c2ccc3c(=O)c4cc(-c5cnc([C@@H]6CCCN6C(=O)[C@@H](NC(=O)OC)C(C)C)[nH]5)ccc4oc3c2)[nH]1)C(C)C [Example 8] | < 1 nM |
| CC(C)(C)OC(=O)N1CCC[C@H]1c1ncc(-c2ccc3c(=O)c4cc(-c5cnc([C@@H]6CCCN6C(=O)OC(C)(C)C)[nH]5)ccc4oc3c2)[nH]1 [Example 9] | 10 to 999 nM |
| COC(=O)N[C@H](C(=O)N1CCC[C@H]1c1ncc(-c2ccc3c(c2)Oc2ccc(-c4cnc([C@@H]5CCCN5C(=O)[C@@H](NC(=O)OC)C(C)C)[nH]4)cc2C3(C)C)[nH]1)C(C)C [Example 10] | < 1 nM |
| COC(=O)N[C@H](C(=O)N1CCC[C@H]1c1ncc(-c2ccc3c(c2)c(=O)c2ccc(-c4cnc([C@@H]5CCCN5C(=O)[C@@H](NC(=O)OC)C(C)C)[nH]4)cc2n3C)[nH]1)C(C)C [Example 11] | < 1 nM |
| COC(=O)N[C@H](C(=O)N1CCC[C@H]1c1ncc(-c2ccc3c(c2)CCc2ccc(-c4cnc([C@@H]5CCCN5C(=O)[C@@H](NC(=O)OC)C(C)C)[nH]4)cc2O3)[nH]1)C(C)C [Example 12] | < 1 nM |

| Structure (SMILES) | EC50 |
| --- | --- |
| COC(=O)N[C@H](C(=O)N1CCC[C@H]1c1ncc(-c2ccc3c(c2)CN(C)c2ccc(-c4cnc([C@@H]5CCCN5C(=O)[C@@H](NC(=O)OC)C(C)C)[nH]4)cc2CN3C)[nH]1)C(C)C [Example 13] | < 1 nM |
| COC(=O)N[C@H](C(=O)N1CCC[C@H]1c1ncc(-c2ccc3c(c2)Oc2ccc(-c4cnc([C@@H]5CCCN5C(=O)[C@@H](NC(=O)OC)C(C)C)[nH]4)cc2C(=O)N3)[nH]1)C(C)C [Example 14] | 10 to 999 nM |
| COC(=O)N[C@H](C(=O)N1CCC[C@H]1c1ncc(-c2ccc3c(=O)c4cc(-c5cnc([C@@H]6CCCN6C(=O)[C@H](NC(=O)OC)c6ccccc6)[nH]5)ccc4oc3c2)[nH]1)C(C)C [Example 15] | < 1 nM |
| COC(=O)N[C@H](C(=O)N1CCC[C@H]1c1ncc(-c2ccc3c(=O)c4cc(-c5cnc([C@@H]6CCCN6C(=O)[C@@H](NC(=O)OC)C6CCOCC6)[nH]5)ccc4oc3c2)[nH]1)C(C)C [Example 16] | < 1 nM |
| COC(=O)N[C@H](C(=O)N1CCC[C@H]1c1ncc(-c2ccc3oc4cc(-c5cnc([C@@H]6CCCN6C(=O)[C@@H](NC(=O)OC)C6CCOCC6)[nH]5)ccc4c(=O)c3c2)[nH]1)C(C)C [Example 17] | < 1 nM |
| COC(=O)N[C@H](C(=O)N1CCC[C@H]1c1ncc(-c2ccc3oc4cc(-c5cnc([C@@H]6CCCN6C(=O)[C@H](NC(=O)OC)c6ccccc6)[nH]5)ccc4c(=O)c3c2)[nH]1)C(C)C [Example 18] | < 1 nM |
| COC(=O)N[C@H](C(=O)N1CCC[C@H]1c1ncc(-c2ccc3c(=O)c4cc(-c5cnc([C@@H]6CCCN6C(=O)[C@H](NC(=O)OC6CCOCC6)c6ccccc6)[nH]5)ccc4oc3c2)[nH]1)C(C)C [Example 19] | < 1 nM |
| COC(=O)N[C@@H](C)C(=O)N1CCC[C@H]1c1ncc(-c2ccc3oc4cc(-c5cnc([C@@H]6CCCN6C(=O)[C@@H](NC(=O)OC)C(C)C)[nH]5)ccc4c(=O)c3c2)[nH]1 [Example 20] | < 1 nM |
| COC(=O)N[C@H](C(=O)N1CCC[C@H]1c1ncc(-c2ccc3oc4cc(-c5cnc([C@@H]6CCCN6C(=O)[C@H](NC(=O)OC6CCOCC6)c6ccccc6)[nH]5)ccc4c(=O)c3c2)[nH]1)C(C)C [Example 21] | < 1 nM |
| COC(=O)N[C@H](C(=O)N1CCC[C@H]1c1ncc(-c2ccc3oc4cc(-c5cnc([C@@H]6CCCN6C(=O)[C@@H](NC(=O)OC)C(C)C)[nH]5)c(F)cc4c(=O)c3c2)[nH]1)C(C)C [Example 22] | < 1 nM |
| COC(=O)N[C@H](C(=O)N1CCC[C@H]1c1ncc(-c2ccc3oc4cc(-c5cnc([C@@H]6CCCN6C(=O)[C@@H](NC(=O)OC)C6CCOCC6)[nH]5)c(F)cc4c(=O)c3c2)[nH]1)C1CCOCC1 [Example 23] | < 1 nM |
| COC(=O)N[C@@H](C(=O)N1CCC[C@H]1c1ncc(-c2ccc3oc4cc(-c5cnc([C@@H]6CCCN6C(=O)[C@H](NC(=O)OC)c6ccccc6)[nH]5)c(F)cc4c(=O)c3c2)[nH]1)c1ccccc1 [Example 24] | < 1 nM |
| O=C(N[C@@H](C(=O)N1CCC[C@H]1c1ncc(-c2ccc3oc4cc(-c5cnc([C@@H]6CCCN6C(=O)[C@H](NC(=O)OC6CCOCC6)c6ccccc6)[nH]5)c(F)cc4c(=O)c3c2)[nH]1)c1ccccc1)OC1CCOCC1 [Example 25] | < 1 nM |
| COC(=O)N[C@H](C(=O)N1CCC[C@H]1c1ncc(-c2ccc3c(c2)Oc2ccc(-c4cnc([C@@H]5CCCN5C(=O)[C@@H](NC(=O)OC)C(C)C)[nH]4)cc2C32CC2)[nH]1)C(C)C [Example 26] | < 1 nM |
| COC(=O)N[C@H](C(=O)N1CCC[C@H]1c1ncc(-c2cc3oc4ccc(-c5cnc([C@@H]6CCCN6C(=O)[C@H](NC(=O)OC)c6ccccc6)[nH]5)cc4c(=O)c3cc2F)[nH]1)C(C)C [Example 27] | < 1 nM |
| COC(=O)N[C@H](C(=O)N1CCC[C@H]1c1ncc(-c2cc3oc4ccc(-c5cnc([C@@H]6CCCN6C(=O)[C@@H](NC(=O)OC)C6CCOCC6)[nH]5)cc4c(=O)c3cc2F)[nH]1)C(C)C [Example 28] | < 1 nM |
| COC(=O)N[C@H](C(=O)N1CCC[C@H]1c1ncc(-c2cc3c(cc2F)Cc2cc(-c4cnc([C@@H]5CCCN5C(=O)[C@@H](NC(=O)OC)[C@@H](C)OC)[nH]4)ccc2O3)[nH]1)C(C)C [Example 29] | < 1 nM |
